Measurements reported in paper PMC4704819, “Honey Bee Allatostatins Target Galanin/Somatostatin-Like Receptors and Modulate Learning: A Conserved Function?” (PLoS ONE, 2016).
*1 amine or outer side, *2 acyl side, *3 side chain or, on linkers, in order; H or OH if unused. Where a SMILES comes first, the peptide text is derived from it. Where no end group is shown, it is not given here. Side-chain parts run from the residue outwards. [ ]: non-standard residue; d: D form. The star is where a group is joined. Ethylenediamine = C(CN[*:2])N[*:1]; Hyp = O=C(O)[C@@H]1C[C@@H](O)CN1; Phg = N[C@H](C(=O)O)c1ccccc1; CO = O=C([*:1])[*:2]; Bn = c1ccc(C*)cc1

Experiments:
[1] = system: mock-transfected HEK293 cells; experiment: Intracellular cAMP reporter assay, mock-transfected HEK293 cells (empty vector); format: cell-based, human
Method: (§1) For intracellular cAMP measurements, cells were bathed in trypsin EDTA and collected, then suspended in fresh DMEM. Transfections with pRK5-ApimeAstC-R, pRK5-ApimeAstA-R or empty pRK5 vector were carried out in 15 ml Falcon tubes. Transfection medium for HEK293 cells was prepared using the Lipofectamine LTX kit (Invitrogen) with 2.5 ml Opti-MEM® (Gibco), 12.5 μl Plus™ Reagent and 4 μg of ApimeASTC-R (or ApimeASTA-R, or empty) expression construct, and 2 μg of CRE(6x)-Luc plasmid. The luciferase ORF, downstream of six tandem repeats of a cyclic AMP responsive element (CRE), in front of a minimum collate promoter, was used as a reporter gene (this reporter plasmid has been used by others)
(§2) We followed a previousy published protocol: HEK293 cells in Dulbecco's Modified Eagles Medium nutrient mixture F12-Ham (DMEM/F12, Sigma–Aldrich) supplemented with 10% heat-inactivated fetal bovine serum (Gibco), 100 IU/ml penicillin, 100 μg/ml streptomycin (Gibco) were maintained in an incubator at 37°C with constant supply of 5% CO2, until they reached 60–80% confluence. Cells were then bathed in trypsin EDTA (Gibco) until rounded. The flask was then tapped to loosen the cells, which were subsequently washed off with 5 ml DMEM/F12. The cells were gently centrifuged at 800 rpm for 5 minutes and carefully suspended in fresh DMEM, which was divided in two for transfection with receptor constructs or empty vectors. After 5 min at room temperature, 30 μl LTX was added. After an incubation period of 30 min at room temperature, the DNA/LTX mix was added to the cells. The cells were then aliquoted (100 μl per well) into a clear bottom 96-well plate (Greiner bio-one #655090) and incubated overnight (37°C, 5% CO2).
(§3) Prior to measuring cAMP, the cell medium was removed by carefully inverting the 96-well plate on filter paper and quickly replaced with 100 μl of DMEM/F12 without phenol red (Invitrogen), but containing 200 μM 3-isobutyl-1-methylxanthine (IBMX, Sigma–Aldrich) to prevent cAMP breakdown, as well as drugs to be tested. In each experiment, some wells were used to measure basal levels of cAMP in the cells (negative control), while others were used to measure cAMP levels in cells exposed to 10 μM forskolin analogue (NKH-477, Sigma Aldrich, positive control). […] All cells were incubated at 37°C and 5% CO2 for 3–4 h to allow transcription of the reporter gene before 100 μl of freshly reconstituted Steadylite Plus™ substrate (PerkinElmer) was added to each well. The 96-well plate was then placed in the dark for 15 min before light emission resulting from luciferase enzymatic activity was recorded. Measurements lasting 0.2 s/well were taken every 55 s for 10 cycles using a FLUOstar Omega microplate reader (BMG Labtech). Results were analyzed by means of the Omega software packages and further processed by Excel and GraphPad Prism softwares. In order to facilitate comparisons across experiments, bioluminescence levels are expressed relative to those in mock-transfected cells (transfected with the vector devoid of the receptor sequence) untreated with NKH-477, which were arbitrarily set at 100.
(§4) To test this prediction, we expressed the two receptors separately in HEK293 cells together with the luciferase reporter gene, downstream of the cAMP response element, CRE, but without exogenous G proteins.

Apime-ASTA-R [2] = target: T1, Apime-ASTA-R (Apis mellifera, UniProt A0A7M7ILT1); experiment: Intracellular cAMP reporter assay, HEK293 cells expressing Apime-ASTA-R; format: cell-based
T1 sequence (A0A7M7ILT1 1-361): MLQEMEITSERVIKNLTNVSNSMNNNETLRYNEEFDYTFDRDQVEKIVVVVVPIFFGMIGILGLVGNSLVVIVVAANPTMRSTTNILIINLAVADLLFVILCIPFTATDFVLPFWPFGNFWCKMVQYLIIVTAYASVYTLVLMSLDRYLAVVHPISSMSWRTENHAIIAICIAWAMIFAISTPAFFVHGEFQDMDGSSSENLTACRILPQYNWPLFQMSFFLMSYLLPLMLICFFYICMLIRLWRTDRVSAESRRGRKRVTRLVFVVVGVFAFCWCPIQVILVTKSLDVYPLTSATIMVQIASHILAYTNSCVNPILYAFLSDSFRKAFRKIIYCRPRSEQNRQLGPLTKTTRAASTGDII
Method: as §1
We followed a previousy published protocol: HEK293 cells in Dulbecco's Modified Eagles Medium nutrient mixture F12-Ham (DMEM/F12, Sigma–Aldrich) supplemented with 10% heat-inactivated fetal bovine serum (Gibco), 100 IU/ml penicillin, 100 μg/ml streptomycin (Gibco) were maintained in an incubator at 37°C with constant supply of 5% CO2, until they reached 60–80% confluence. Cells were then bathed in trypsin EDTA (Gibco) until rounded. The flask was then tapped to loosen the cells, which were subsequently washed off with 5 ml DMEM/F12. […]
Prior to measuring cAMP, the cell medium was removed by carefully inverting the 96-well plate on filter paper and quickly replaced with 100 μl of DMEM/F12 without phenol red (Invitrogen), but containing 200 μM 3-isobutyl-1-methylxanthine (IBMX, Sigma–Aldrich) to prevent cAMP breakdown, as well as drugs to be tested. […] The 96-well plate was then placed in the dark for 15 min before light emission resulting from luciferase enzymatic activity was recorded. Measurements lasting 0.2 s/well were taken every 55 s for 10 cycles using a FLUOstar Omega microplate reader (BMG Labtech). Results were analyzed by means of the Omega software packages and further processed by Excel and GraphPad Prism softwares. […]

Apime-ASTC-R [3] = target: T2, Apime-ASTC-R (Apis mellifera, UniProt A0A7M7GNE5); experiment: Intracellular cAMP reporter assay, HEK293 cells expressing Apime-ASTC-R; format: cell-based; settings: Fig 5B, 2 transfections in duplicates or triplicates
T2 sequence (A0A7M7GNE5 1-423): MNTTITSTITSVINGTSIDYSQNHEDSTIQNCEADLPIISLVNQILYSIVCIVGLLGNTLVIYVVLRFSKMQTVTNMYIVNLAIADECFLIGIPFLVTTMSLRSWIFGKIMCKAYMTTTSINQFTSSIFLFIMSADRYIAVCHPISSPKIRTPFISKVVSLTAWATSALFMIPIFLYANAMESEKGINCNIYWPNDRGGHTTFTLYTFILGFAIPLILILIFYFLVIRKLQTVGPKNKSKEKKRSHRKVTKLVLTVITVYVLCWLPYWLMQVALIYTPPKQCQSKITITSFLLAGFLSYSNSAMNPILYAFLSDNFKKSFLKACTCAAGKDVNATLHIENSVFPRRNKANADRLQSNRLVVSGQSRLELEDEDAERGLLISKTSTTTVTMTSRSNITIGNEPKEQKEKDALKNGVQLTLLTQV
Method: as §1, §2, §3, §4

Apime-ASTC-R [4] = target: T2, Apime-ASTC-R; experiment: Intracellular calcium measurement, HEK293 cells expressing Apime-ASTC-R with Gαqi9 chimeric G protein; format: cell-based; settings: concentrations up to 0.1mM; data not shown
Method: (§5) This vector contains an ATG initiation codon in phase with a mammalian signal peptide sequence of metabotropic glutamate receptor 5 to address receptor protein to the cell membrane, with a hemagglutinin sequence (TAG HA), and MluI and HindIII restriction sites used for cloning. The coding regions of the genes of interest were PCR amplified from cDNA template. After extraction from whole brains, 1 μg of total RNA was reverse-transcribed with random primers. […] PCR reactions included: 30s at 98°C, then 30 cycles of 10s at 98°C, 30s at 60°C, 1 min at 72°C and finally, 5 minutes at 72°C. Cloning required several amplification and digestion steps to insert the full cDNA sequences in the vector.
In all cases, 2 μg of plasmid DNA encoding the Gαqi9 chimeric G protein was included to enable artificial coupling of the receptors to phospholipase C. […]
Cells were washed with freshly prepared 20 mM Hepes, 1 mM MgSO4, 3.3 mM Na2CO3, 1.3 mM CaCl2, 0.1% BSA, 2.5 mM probenecid in 1X Hank's balanced salt solution (Gibco #14185), pH7.4 buffer and loaded with 1 μM Ca^2+-sensitive fluorescent dye Fluo-4 AM (Invitrogen # F14202) for 1 h at 37°C. […] Fluorescence signals (excitation 485 nm, emission 525 nm) were measured by using the fluorescence microplate reader Flexstation (Molecular Devices) at sampling intervals of 1.5 s for 60 s. […]

Apime-ASTA-R [5] = target: T1, Apime-ASTA-R; experiment: Intracellular calcium measurement, HEK293 cells expressing Apime-ASTA-R with Gαqi9 chimeric G protein; format: cell-based
Method: as §5
In all cases, 2 μg of plasmid DNA encoding the Gαqi9 chimeric G protein was included to enable artificial coupling of the receptors to phospholipase C. Electroporation (250 V, 800 μF, Biorad GenePulser X-cell) was performed in a total volume of 300 μl of electroporation buffer (50 mM K2HPO4, 20 mM CH3COOK, 20 mM KOH, 26.5 mM MgSO4, pH 7.4). After electroporation, cells were resuspended in 10 ml of culture medium and split (100 μl/well) into polyornithine-coated (Sigma #P3655), black-walled, clear bottom 96-well plates (Greiner bio-one #655090) and grown for a further 48 h prior to analyzing receptor properties. All products used for cell culture were purchased from Invitrogen Life Technologies.
Cells were washed with freshly prepared 20 mM Hepes, 1 mM MgSO4, 3.3 mM Na2CO3, 1.3 mM CaCl2, 0.1% BSA, 2.5 mM probenecid in 1X Hank's balanced salt solution (Gibco #14185), pH7.4 buffer and loaded with 1 μM Ca^2+-sensitive fluorescent dye Fluo-4 AM (Invitrogen # F14202) for 1 h at 37°C. Cells were washed once and incubated with 50 μl of buffer. A plate was prepared with the various concentrations of peptides to be tested, and 50 μl of 2X concentrated-drug solution was added in each well after 20 s of recording. Fluorescence signals (excitation 485 nm, emission 525 nm) were measured by using the fluorescence microplate reader Flexstation (Molecular Devices) at sampling intervals of 1.5 s for 60 s. All represented data correspond to means ± standard deviation (SD) from experiments performed in triplicate.
This method allows detecting ligand-induced activation of the receptor by measuring the release of intracellular calcium.

## C=C[C@@]1(C)CC(=O)[C@]2(O)[C@@]3(C)[C@@H](O)CCC(C)(C)[C@@H]3[C@H](OC(=O)CCN(C)C)[C@H](OC(C)=O)[C@@]2(C)O1.Cl [NKH-477, reference compound]
[1]; 10 nM to 10 μM
  increase in bioluminescence (cAMP), in words: increased bioluminescence in a dose-dependent manner
[1]; 10 μM, CRE-luciferase, 200 μM IBMX, Fig 5B, 2 transfections in duplicates or triplicates
  increase in bioluminescence (cAMP) compared to baseline: 2.5 fold
Apime-ASTA-R [2]; Fig 5B, 2 transfections in duplicates or triplicates
  ability to increase bioluminescence versus mock-transfected cells, in words: reduced ability to increase bioluminescence levels
Apime-ASTA-R [2]; same concentrations as in mock cells (10 nM to 10 μM), CRE-luciferase, IBMX, Fig 5B, 2 transfections in duplicates or triplicates
  increase in cAMP levels (bioluminescence): 1.59 fold
Apime-ASTC-R [3]
  ability to increase bioluminescence versus mock-transfected cells, in words: reduced ability to increase bioluminescence levels
Apime-ASTC-R [3]; same concentrations as in mock cells (10 nM to 10 μM), CRE-luciferase, IBMX
  increase in cAMP levels (bioluminescence): 1.24 fold

## NCCCC[C@@H]1NC(=O)[C@@H](Cc2c[nH]c3ccccc23)NC(=O)[C@H](c2ccccc2)NC(=O)[C@@H]2C[C@@H](OC(=O)NCCN)CN2C(=O)[C@H](Cc2ccccc2)NC(=O)[C@H](Cc2ccc(OCc3ccccc3)cc2)NC1=O [SOM230, reference compound] (cyclo([Hyp]([CO-Ethylenediamine])[Phg][dW]KY(Bn)F); ring closure inferred)
Apime-ASTC-R [4]
  calcium release: No calcium release was detected
Apime-ASTA-R [5]; concentrations up to 0.1mM, data not shown
  calcium release: No calcium release was detected

## GRQPYSFGL-NH2 [Apime-ASTA]
Apime-ASTA-R [5]; HEK293, Gαqi9, Fluo-4 AM, Flexstation (ex 485 nm, em 525 nm), pH 7.4, experiments in triplicate, read-out: EC50, calcium release
  EC50: 1.99 nM
Apime-ASTA-R [2]; CRE-luciferase, 200 μM IBMX, no exogenous G protein, 37°C 3–4 h, normalized to mock-transfected cells, 3 independent transfections in triplicate, Fig 5C, read-out: mean EC50, increase in cAMP levels
  EC50: 103 nM
